The source made the active and inactive calls. The calls are words filed in the database; no cut-off is given here.

A word on the inhibition: it is the change of the read-out against control, counted positive when it falls. One may read the IC50 as the concentration that gives 50% inhibition.

Test [1] concerns the target Histamine H2 receptor (Homo sapiens) (UniProt P25021). The note with it: Compound concentration 10.0 uM.
Test [2] has as its target T1, Tyrosine-protein kinase ITK/TSK (Homo sapiens) (UniProt Q08881).
T1 sequence (whole entry): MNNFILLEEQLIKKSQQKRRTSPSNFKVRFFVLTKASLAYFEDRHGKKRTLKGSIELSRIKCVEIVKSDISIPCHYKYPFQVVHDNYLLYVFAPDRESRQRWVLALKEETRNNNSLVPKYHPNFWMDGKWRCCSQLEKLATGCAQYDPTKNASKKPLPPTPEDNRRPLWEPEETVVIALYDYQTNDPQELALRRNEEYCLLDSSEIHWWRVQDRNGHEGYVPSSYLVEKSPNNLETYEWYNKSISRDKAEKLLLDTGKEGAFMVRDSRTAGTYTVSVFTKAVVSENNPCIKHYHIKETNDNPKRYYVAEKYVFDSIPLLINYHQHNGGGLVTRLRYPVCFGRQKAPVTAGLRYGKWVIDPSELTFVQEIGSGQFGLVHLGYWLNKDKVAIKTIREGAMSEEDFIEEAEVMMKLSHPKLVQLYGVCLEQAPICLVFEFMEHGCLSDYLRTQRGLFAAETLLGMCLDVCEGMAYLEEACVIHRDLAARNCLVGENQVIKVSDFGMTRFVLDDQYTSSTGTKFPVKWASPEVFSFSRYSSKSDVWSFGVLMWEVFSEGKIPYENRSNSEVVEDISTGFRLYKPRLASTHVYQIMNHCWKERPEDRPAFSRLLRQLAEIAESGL
Put plainly: Itk(h) Eurofins kinase panel. The conditions noted are these: Compound concentration 1.0 uM.

Test [3] addresses Ribosomal protein S6 kinase beta-1 (Homo sapiens) (UniProt P23443). Put plainly: p70S6K(h) Eurofins kinase panel. The note with it: Compound concentration 1.0 uM.
Test [4] concerns Rec1. Put plainly: REC-1 cell line Proliferation assay. Type of test: functional, Homo sapiens. The note with it: time 3 day.
Test [5] concerns the target BDNF/NT-3 growth factors receptor (Homo sapiens) (UniProt Q16620). The test can be described thus: TrkB(h) Eurofins kinase panel. The conditions noted are these: Compound concentration 1.0 uM.
Test [6] deals with Homeodomain-interacting protein kinase 1 (Homo sapiens) (UniProt Q86Z02). The test can be described thus: HIPK1(h) Eurofins kinase panel. The note with it: Compound concentration 1.0 uM.
In test [7] the target is Aurora kinase A (Homo sapiens, UniProt O14965). The test can be described thus: (§1) Aurora-A(h) Eurofins kinase panel.
Test [8] addresses T2, Aurora kinase A (Homo sapiens) (UniProt O14965).
T2 sequence (whole entry): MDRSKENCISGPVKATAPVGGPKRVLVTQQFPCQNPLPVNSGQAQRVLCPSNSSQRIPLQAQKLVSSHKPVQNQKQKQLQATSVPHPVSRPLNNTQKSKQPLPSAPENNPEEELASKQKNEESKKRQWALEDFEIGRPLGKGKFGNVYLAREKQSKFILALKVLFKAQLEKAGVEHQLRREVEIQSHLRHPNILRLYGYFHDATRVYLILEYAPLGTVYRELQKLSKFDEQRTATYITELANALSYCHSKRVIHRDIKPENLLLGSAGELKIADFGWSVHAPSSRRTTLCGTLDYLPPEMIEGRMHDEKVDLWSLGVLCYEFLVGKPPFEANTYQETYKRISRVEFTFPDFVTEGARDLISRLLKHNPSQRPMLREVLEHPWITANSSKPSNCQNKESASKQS
Described as §1. The conditions noted are these: Compound concentration 1.0 uM.

For test [9], the target named is DNA-dependent protein kinase catalytic subunit (Homo sapiens) (UniProt P78527). Put plainly: DNA-PK(h) Eurofins kinase panel. The conditions noted are these: Compound concentration 1.0 uM.
For test [10], the system named is COLO 201. The test can be described thus: COLO 201, control cell line Proliferation assay. The conditions noted are these: time 3 day. It is filed as functional, Homo sapiens.
Test [11] concerns SK-N-FI. Put plainly: SK-N-F1, control cell line Proliferation assay. Type of test: functional, Homo sapiens. The note with it: time 6 day.
In test [12] the target is T3, Tyrosine-protein kinase receptor TYRO3 (Homo sapiens) (UniProt Q06418).
T3 sequence (whole entry): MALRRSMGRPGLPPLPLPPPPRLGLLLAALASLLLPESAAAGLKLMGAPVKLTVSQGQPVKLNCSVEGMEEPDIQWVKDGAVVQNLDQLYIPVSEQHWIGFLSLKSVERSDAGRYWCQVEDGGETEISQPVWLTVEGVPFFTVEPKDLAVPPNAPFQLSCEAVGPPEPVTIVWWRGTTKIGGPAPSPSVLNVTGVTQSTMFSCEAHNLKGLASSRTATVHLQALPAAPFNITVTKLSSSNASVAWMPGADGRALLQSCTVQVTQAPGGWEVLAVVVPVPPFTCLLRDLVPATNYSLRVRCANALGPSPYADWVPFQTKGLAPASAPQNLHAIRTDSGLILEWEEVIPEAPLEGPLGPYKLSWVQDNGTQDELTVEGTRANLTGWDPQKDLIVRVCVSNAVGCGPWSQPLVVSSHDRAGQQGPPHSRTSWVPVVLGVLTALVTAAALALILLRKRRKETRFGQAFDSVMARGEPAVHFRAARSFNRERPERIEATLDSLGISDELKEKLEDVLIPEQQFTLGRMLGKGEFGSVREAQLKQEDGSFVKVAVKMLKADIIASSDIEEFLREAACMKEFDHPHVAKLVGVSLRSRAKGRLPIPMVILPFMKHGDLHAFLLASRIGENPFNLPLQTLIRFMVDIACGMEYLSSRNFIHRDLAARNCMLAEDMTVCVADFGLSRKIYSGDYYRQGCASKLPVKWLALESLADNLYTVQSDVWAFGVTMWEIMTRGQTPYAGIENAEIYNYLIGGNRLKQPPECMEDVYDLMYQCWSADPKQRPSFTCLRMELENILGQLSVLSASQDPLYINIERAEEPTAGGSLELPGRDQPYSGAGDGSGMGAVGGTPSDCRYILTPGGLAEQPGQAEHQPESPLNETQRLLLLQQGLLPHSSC
The test can be described thus: Rse(h) Eurofins kinase panel. The conditions noted are these: Compound concentration 1.0 uM.

Test [13] concerns the target T4, Serine/threonine-protein kinase Nek3 (Homo sapiens) (UniProt P51956).
T4 sequence (whole entry): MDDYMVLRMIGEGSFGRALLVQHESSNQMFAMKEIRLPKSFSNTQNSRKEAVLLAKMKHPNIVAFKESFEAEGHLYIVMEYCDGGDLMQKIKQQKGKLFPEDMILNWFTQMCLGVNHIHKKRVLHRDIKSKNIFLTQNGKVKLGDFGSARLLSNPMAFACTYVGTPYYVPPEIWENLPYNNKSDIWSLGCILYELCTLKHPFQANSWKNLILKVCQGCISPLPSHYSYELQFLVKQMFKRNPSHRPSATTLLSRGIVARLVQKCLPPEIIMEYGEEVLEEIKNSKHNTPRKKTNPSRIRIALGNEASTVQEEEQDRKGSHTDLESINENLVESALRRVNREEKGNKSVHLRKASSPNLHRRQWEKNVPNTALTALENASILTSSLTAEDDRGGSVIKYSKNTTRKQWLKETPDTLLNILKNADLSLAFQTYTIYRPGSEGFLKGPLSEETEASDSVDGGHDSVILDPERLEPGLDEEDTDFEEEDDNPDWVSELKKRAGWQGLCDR
Put plainly: NEK3(h) Eurofins kinase panel. The conditions noted are these: Compound concentration 1.0 uM.

In test [14] the target is Ribosomal protein S6 kinase alpha-1 (Homo sapiens, UniProt Q15418). Put plainly: Eurofins kinase panel (RPS6KA1). Also on record: compound concentration 1 uM.
Sequence of Ribosomal protein S6 kinase alpha-1 (Q15418 whole entry): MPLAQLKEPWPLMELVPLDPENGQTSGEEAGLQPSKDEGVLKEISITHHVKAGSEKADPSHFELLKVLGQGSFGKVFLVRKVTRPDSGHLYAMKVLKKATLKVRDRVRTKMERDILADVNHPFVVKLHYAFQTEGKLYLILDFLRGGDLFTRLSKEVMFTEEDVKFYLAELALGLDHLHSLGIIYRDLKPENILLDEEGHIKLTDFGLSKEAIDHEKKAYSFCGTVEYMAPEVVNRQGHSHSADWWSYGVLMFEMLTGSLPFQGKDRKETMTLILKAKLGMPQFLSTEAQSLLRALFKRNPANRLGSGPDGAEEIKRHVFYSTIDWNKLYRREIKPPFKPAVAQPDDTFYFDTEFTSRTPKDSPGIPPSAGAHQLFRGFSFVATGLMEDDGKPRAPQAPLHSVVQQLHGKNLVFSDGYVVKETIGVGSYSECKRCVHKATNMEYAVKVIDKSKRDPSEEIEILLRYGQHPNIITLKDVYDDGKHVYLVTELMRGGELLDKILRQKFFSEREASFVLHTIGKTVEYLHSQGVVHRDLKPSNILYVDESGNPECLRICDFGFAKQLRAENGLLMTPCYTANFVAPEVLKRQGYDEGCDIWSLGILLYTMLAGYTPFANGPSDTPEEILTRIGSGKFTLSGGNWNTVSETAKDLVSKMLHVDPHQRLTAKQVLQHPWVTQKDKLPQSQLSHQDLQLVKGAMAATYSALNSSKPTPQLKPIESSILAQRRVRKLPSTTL

Sequence of BDNF/NT-3 growth factors receptor (Homo sapiens) (Q16620 32-822 limits assumed): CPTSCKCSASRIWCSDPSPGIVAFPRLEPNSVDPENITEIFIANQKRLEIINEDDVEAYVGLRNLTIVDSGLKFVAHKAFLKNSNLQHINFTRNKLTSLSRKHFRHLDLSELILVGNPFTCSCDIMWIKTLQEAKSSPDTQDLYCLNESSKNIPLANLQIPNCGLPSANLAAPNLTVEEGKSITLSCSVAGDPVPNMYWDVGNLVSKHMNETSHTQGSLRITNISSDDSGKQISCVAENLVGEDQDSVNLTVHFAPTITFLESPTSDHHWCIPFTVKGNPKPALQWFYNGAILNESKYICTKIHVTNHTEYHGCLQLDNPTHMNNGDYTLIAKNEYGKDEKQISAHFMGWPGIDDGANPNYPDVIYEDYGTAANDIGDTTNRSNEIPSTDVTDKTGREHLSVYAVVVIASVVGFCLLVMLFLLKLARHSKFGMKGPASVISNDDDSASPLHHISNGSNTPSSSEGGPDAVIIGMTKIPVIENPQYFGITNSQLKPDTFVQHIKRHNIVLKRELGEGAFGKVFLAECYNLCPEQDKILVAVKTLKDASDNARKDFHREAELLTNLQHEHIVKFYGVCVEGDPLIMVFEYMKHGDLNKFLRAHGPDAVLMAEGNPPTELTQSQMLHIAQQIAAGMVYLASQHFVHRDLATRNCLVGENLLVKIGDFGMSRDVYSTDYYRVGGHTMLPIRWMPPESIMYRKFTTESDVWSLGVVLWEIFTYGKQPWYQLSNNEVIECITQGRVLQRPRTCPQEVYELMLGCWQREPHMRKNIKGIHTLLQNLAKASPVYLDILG
Sequence of Histamine H2 receptor (Homo sapiens) (P25021 whole entry): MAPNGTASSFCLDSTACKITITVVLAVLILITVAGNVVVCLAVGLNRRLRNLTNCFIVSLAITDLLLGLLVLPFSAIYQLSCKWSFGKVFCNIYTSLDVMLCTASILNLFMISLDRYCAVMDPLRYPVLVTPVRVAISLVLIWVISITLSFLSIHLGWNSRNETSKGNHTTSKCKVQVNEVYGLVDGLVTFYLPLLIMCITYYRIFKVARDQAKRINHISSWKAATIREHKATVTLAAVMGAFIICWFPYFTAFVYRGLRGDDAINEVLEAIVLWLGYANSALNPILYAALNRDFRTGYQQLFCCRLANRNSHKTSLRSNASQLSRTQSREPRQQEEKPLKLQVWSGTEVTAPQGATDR
Sequence of Homeodomain-interacting protein kinase 1 (Homo sapiens) (Q86Z02 whole entry, looked up): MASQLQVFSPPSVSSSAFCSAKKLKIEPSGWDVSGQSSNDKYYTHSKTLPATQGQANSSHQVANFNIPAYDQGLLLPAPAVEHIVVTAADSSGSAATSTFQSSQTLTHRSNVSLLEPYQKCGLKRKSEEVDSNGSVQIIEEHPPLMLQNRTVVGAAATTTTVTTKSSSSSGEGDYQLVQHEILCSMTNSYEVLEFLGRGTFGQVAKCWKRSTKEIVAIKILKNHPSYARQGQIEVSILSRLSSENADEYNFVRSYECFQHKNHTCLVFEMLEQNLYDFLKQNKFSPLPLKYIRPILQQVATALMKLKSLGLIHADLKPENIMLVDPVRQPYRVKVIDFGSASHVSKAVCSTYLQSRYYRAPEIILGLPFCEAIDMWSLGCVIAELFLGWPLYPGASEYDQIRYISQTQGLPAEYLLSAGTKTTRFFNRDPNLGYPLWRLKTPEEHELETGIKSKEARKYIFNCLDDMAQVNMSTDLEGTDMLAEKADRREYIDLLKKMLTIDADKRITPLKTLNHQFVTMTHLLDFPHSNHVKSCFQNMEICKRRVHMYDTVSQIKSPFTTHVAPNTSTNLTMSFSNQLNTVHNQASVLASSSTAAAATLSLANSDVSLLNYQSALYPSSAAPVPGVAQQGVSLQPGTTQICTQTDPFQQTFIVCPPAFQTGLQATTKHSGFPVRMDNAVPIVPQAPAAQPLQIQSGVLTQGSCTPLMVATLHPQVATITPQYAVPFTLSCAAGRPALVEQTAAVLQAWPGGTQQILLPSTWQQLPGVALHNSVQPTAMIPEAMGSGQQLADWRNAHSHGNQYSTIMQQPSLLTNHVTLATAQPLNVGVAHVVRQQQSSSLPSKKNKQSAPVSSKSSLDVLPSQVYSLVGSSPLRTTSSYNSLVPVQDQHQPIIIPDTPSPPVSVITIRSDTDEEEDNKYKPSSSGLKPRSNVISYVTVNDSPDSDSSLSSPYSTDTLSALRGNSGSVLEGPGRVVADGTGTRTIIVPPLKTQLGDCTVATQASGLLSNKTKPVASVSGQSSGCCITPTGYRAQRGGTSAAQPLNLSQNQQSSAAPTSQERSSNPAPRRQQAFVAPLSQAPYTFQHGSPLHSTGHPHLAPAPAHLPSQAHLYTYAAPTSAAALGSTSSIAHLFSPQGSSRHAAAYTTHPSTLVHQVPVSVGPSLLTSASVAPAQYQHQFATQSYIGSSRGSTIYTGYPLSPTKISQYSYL
Sequence of Ribosomal protein S6 kinase beta-1 (Homo sapiens) (P23443 whole entry, looked up): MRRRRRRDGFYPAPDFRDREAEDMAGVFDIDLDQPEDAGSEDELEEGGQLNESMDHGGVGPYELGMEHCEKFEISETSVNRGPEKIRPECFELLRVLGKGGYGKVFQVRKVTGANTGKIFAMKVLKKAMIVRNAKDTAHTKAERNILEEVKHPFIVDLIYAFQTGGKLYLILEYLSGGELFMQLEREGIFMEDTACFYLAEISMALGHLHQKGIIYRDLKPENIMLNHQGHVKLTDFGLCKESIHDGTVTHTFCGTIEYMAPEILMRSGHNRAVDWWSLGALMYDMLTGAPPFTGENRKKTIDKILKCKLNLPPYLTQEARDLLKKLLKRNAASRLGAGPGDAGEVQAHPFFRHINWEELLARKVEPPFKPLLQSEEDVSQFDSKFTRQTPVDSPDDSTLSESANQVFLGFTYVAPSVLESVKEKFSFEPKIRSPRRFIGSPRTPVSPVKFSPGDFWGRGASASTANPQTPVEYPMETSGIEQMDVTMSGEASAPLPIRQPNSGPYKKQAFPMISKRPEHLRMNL

Consider `CC1=C(C#N)C(c2ccc3c(c2)c(NC(=O)c2ccccc2C)nn3C)C(C#N)=C(C)N1` [BAY-974], for which, in [1], the inhibition is 8.7%.
`CCc1ccccc1C(=O)Nc1n[nH]c2c(C)c(F)c(C3C(C#N)=C(C)N(C)C(C)=C3C#N)cc12` [BAY-3827]: the % residual kinase activity in test [2] was 106%; in test [3], 76%; in test [5], 103%; in [6] it was 100%; in test [8] it was 34%; in test [9], 94%. Besides, the % residual kinase activity is 105% in [12] and 102% in test [13]. Also, the “Cell Proliferation IC50” value came out at 3300 nM in [4], 16000 nM in [10] and 21200 nM in [11]. Besides, the values for the IC50 in [7] and in test [14] were 480 nM and 9.1 nM (active), respectively.

These data come from ChEMBL document CHEMBL4507319 (2021).
